# According to BindingDB's records for doi:10.1021/jm00060a006 (Paris Diderot University, 1993):
# Tests used:
# [1] = Inhibition of PAF-induced rabbit platelet aggregation
# [2] = Inhibition of [3H]PAF binding to rabbit platelet membrane
IC50 [1],EC50 [2],Compound
1780 nM,–,COc1cc(C(=O)N2CCN(C(=O)c3cc(OC)c(OC)c(OC)c3)CC2)cc(OC)c1OC
740 nM,180 nM,C[C@@H]1C(=O)O[C@H]2[C@H](O)[C@@]34[C@H]5C[C@@H](C(C)(C)C)[C@]36[C@@H](OC(=O)[C@@H]6O)O[C@@]4(C(=O)O5)[C@@]12O
12500 nM,–,"COc1cc(N2CCN(c3cc(OC)c(OC)c(OC)c3)CC2)cc(OC)c1OC [1,4-Bis-(3,4,5-trimethoxy-phenyl)-piperazine]"
100 nM,300 nM,"COc1cc(C(=O)N2CCN(C(=O)c3cc(OC)c(OC)c(OC)c3)C(COC(=O)C(C)(C)C)C2)cc(OC)c1OC (stereo unspecified) [2,2-Dimethyl-propionic acid 1,4-bis-(3,4,5-trimethoxy-benzoyl)-piperazin-2-ylmethyl ester]"
170 nM,450 nM,"COc1cc(C(=O)N2CCN(C(=O)c3cc(OC)c(OC)c(OC)c3)C(COC(=O)c3ccccc3Cl)C2)cc(OC)c1OC (stereo unspecified) [2-Chloro-benzoic acid 1,4-bis-(3,4,5-trimethoxy-benzoyl)-piperazin-2-ylmethyl ester]"
2700 nM,–,"CCC(CC)C(=O)OCC1CN(Cc2cc(OC)c(OC)c(OC)c2)CCN1Cc1cc(OC)c(OC)c(OC)c1 (stereo unspecified) [2-Ethyl-butyric acid 1,4-bis-(3,4,5-trimethoxy-benzyl)-piperazin-2-ylmethyl ester]"
120 nM,–,"COc1cc(C(=O)N2CCN(C(=O)c3cc(OC)c(OC)c(OC)c3)C(COC(=O)CC(C)(C)C)C2)cc(OC)c1OC (stereo unspecified) [3,3-Dimethyl-butyric acid 1,4-bis-(3,4,5-trimethoxy-benzoyl)-piperazin-2-ylmethyl ester]"
320 nM,–,"CCC(C)(C)NC(=O)OCC1CN(C(=O)c2cc(OC)c(OC)c(OC)c2)CCN1C(=O)c1cc(OC)c(OC)c(OC)c1 (stereo unspecified) [(1,1-Dimethyl-propyl)-carbamic acid 1,4-bis-(3,4,5-trimethoxy-benzoyl)-piperazin-2-ylmethyl ester]"
170 nM,–,"COc1cc(C(=O)N2CCN(C(=O)c3cc(OC)c(OC)c(OC)c3)C(COC(=O)NC(C)C(C)(C)C)C2)cc(OC)c1OC (stereo unspecified) [(1,2,2-Trimethyl-propyl)-carbamic acid 1,4-bis-(3,4,5-trimethoxy-benzoyl)-piperazin-2-ylmethyl ester]"
80 nM,70 nM,"COc1cc(C(=O)N2CCN(C(=O)c3cc(OC)c(OC)c(OC)c3)C(COC(=O)NC(C)C(C)C)C2)cc(OC)c1OC (stereo unspecified) [(1,2-Dimethyl-propyl)-carbamic acid 1,4-bis-(3,4,5-trimethoxy-benzoyl)-piperazin-2-ylmethyl ester]"
280 nM,180 nM,"COc1cc(C(=O)N2CCN(C(=O)c3cc(OC)c(OC)c(OC)c3)C(COC(=O)NC(C)CC(C)C)C2)cc(OC)c1OC (stereo unspecified) [(1,3-Dimethyl-butyl)-carbamic acid 1,4-bis-(3,4,5-trimethoxy-benzoyl)-piperazin-2-ylmethyl ester]"
380 nM,680 nM,"CCCN(CCC)C(=O)OCC1CN(C(=O)c2cc(OC)c(OC)c(OC)c2)CCN1C(=O)c1cc(OC)c(OC)c(OC)c1 (stereo unspecified) [(1,4-bis(3,4,5-trimethoxybenzoyl)piperazin-2-yl)methyl dipropylcarbamate]"
130 nM,–,"CCC(CC)NC(=O)OCC1CN(C(=O)c2cc(OC)c(OC)c(OC)c2)CCN1C(=O)c1cc(OC)c(OC)c(OC)c1 (stereo unspecified) [(1-Ethyl-propyl)-carbamic acid 1,4-bis-(3,4,5-trimethoxy-benzoyl)-piperazin-2-ylmethyl ester]"
100 nM,–,"CCCC(C)NC(=O)OCC1CN(C(=O)c2cc(OC)c(OC)c(OC)c2)CCN1C(=O)c1cc(OC)c(OC)c(OC)c1 (stereo unspecified) [(1-Methyl-butyl)-carbamic acid 1,4-bis-(3,4,5-trimethoxy-benzoyl)-piperazin-2-ylmethyl ester]"
3900 nM,–,"CCCCC(CC)CNC(=O)OCC1CN(C(=O)c2cc(OC)c(OC)c(OC)c2)CCN1C(=O)c1cc(OC)c(OC)c(OC)c1 (stereo unspecified) [(2-Ethyl-hexyl)-carbamic acid 1,4-bis-(3,4,5-trimethoxy-benzoyl)-piperazin-2-ylmethyl ester]"
470 nM,–,"CCC(C)CNC(=O)OCC1CN(C(=O)c2cc(OC)c(OC)c(OC)c2)CCN1C(=O)c1cc(OC)c(OC)c(OC)c1 (stereo unspecified) [(2-Methyl-butyl)-carbamic acid 1,4-bis-(3,4,5-trimethoxy-benzoyl)-piperazin-2-ylmethyl ester]"
13800 nM,–,"COc1cc(NC(=O)OCC2CN(C(=O)c3cc(OC)c(OC)c(OC)c3)CCN2C(=O)c2cc(OC)c(OC)c(OC)c2)cc(OC)c1OC (stereo unspecified) [(3,4,5-Trimethoxy-phenyl)-carbamic acid 1,4-bis-(3,4,5-trimethoxy-benzoyl)-piperazin-2-ylmethyl ester]"

IC50 [1],EC50 [2],Compound
140 nM,–,"COc1cc(C(=O)N2CCN(C(=O)c3cc(OC)c(OC)c(OC)c3)C(COC(=O)NCCC(C)C)C2)cc(OC)c1OC (stereo unspecified) [(3-Methyl-butyl)-carbamic acid 1,4-bis-(3,4,5-trimethoxy-benzoyl)-piperazin-2-ylmethyl ester]"
5000 nM,–,"COc1cc(C(=O)N2CCN(C(=O)c3cc(OC)c(OC)c(OC)c3)C(COC(=O)COc3ccc(Cl)cc3)C2)cc(OC)c1OC (stereo unspecified) [(4-Chloro-phenoxy)-acetic acid 1,4-bis-(3,4,5-trimethoxy-benzoyl)-piperazin-2-ylmethyl ester]"
10300 nM,–,"COc1cc(C(=O)N2CCN(C(=O)c3cc(OC)c(OC)c(OC)c3)C(COC(=O)COc3ccc(F)cc3)C2)cc(OC)c1OC (stereo unspecified) [(4-Fluoro-phenoxy)-acetic acid 1,4-bis-(3,4,5-trimethoxy-benzoyl)-piperazin-2-ylmethyl ester]"
430 nM,400 nM,"COc1cc(C(=O)N2CCN(C(=O)c3cc(OC)c(OC)c(OC)c3)C(COC(C)=O)C2)cc(OC)c1OC (stereo unspecified) [Acetic acid 1,4-bis-(3,4,5-trimethoxy-benzoyl)-piperazin-2-ylmethyl ester]"
240 nM,700 nM,"CCCCNC(=O)OCC1CN(C(=O)c2cc(OC)c(OC)c(OC)c2)CCN1C(=O)c1cc(OC)c(OC)c(OC)c1 (stereo unspecified) [Butyl-carbamic acid 1,4-bis-(3,4,5-trimethoxy-benzoyl)-piperazin-2-ylmethyl ester]"
420 nM,–,"CCCC(=O)OCC1CN(C(=O)c2cc(OC)c(OC)c(OC)c2)CCN1C(=O)c1cc(OC)c(OC)c(OC)c1 (stereo unspecified) [Butyric acid 1,4-bis-(3,4,5-trimethoxy-benzoyl)-piperazin-2-ylmethyl ester]"
290 nM,–,"COc1cc(C(=O)N2CCN(C(=O)c3cc(OC)c(OC)c(OC)c3)C(COC(=O)C3CCCCC3)C2)cc(OC)c1OC (stereo unspecified) [Cyclohexanecarboxylic acid 1,4-bis-(3,4,5-trimethoxy-benzoyl)-piperazin-2-ylmethyl ester]"
2820 nM,–,"CCCCCCCCCC(=O)OCC1CN(C(=O)c2cc(OC)c(OC)c(OC)c2)CCN1C(=O)c1cc(OC)c(OC)c(OC)c1 (stereo unspecified) [Decanoic acid 1,4-bis-(3,4,5-trimethoxy-benzoyl)-piperazin-2-ylmethyl ester]"
1250 nM,–,"CCCCN(CCCC)C(=O)OCC1CN(C(=O)c2cc(OC)c(OC)c(OC)c2)CCN1C(=O)c1cc(OC)c(OC)c(OC)c1 (stereo unspecified) [Dibutyl-carbamic acid 1,4-bis-(3,4,5-trimethoxy-benzoyl)-piperazin-2-ylmethyl ester]"
25800 nM,–,"CCN(CC)C(=O)OCC1CN(C(=O)c2cc(OC)c(OC)c(OC)c2)CCN1C(=O)c1cc(OC)c(OC)c(OC)c1 (stereo unspecified) [Diethyl-carbamic acid 1,4-bis-(3,4,5-trimethoxy-benzoyl)-piperazin-2-ylmethyl ester]"
11400 nM,–,"CCCCCN(CCCCC)C(=O)OCC1CN(C(=O)c2cc(OC)c(OC)c(OC)c2)CCN1C(=O)c1cc(OC)c(OC)c(OC)c1 (stereo unspecified) [Dipentyl-carbamic acid 1,4-bis-(3,4,5-trimethoxy-benzoyl)-piperazin-2-ylmethyl ester]"
290 nM,–,"CCCCCC(=O)OCC1CN(C(=O)c2cc(OC)c(OC)c(OC)c2)CCN1C(=O)c1cc(OC)c(OC)c(OC)c1 (stereo unspecified) [Hexanoic acid 1,4-bis-(3,4,5-trimethoxy-benzoyl)-piperazin-2-ylmethyl ester]"
45000 nM,–,"CCCCCCCCCCCCCCCCCC(=O)OCC1CN(C(=O)c2cc(OC)c(OC)c(OC)c2)CCN1C(=O)c1cc(OC)c(OC)c(OC)c1 (stereo unspecified) [Octadecanoic acid 1,4-bis-(3,4,5-trimethoxy-benzoyl)-piperazin-2-ylmethyl ester]"
310 nM,–,"CCCCCCCC(=O)OCC1CN(C(=O)c2cc(OC)c(OC)c(OC)c2)CCN1C(=O)c1cc(OC)c(OC)c(OC)c1 (stereo unspecified) [Octanoic acid 1,4-bis-(3,4,5-trimethoxy-benzoyl)-piperazin-2-ylmethyl ester]"
370 nM,–,"CCCCCCCCNC(=O)OCC1CN(C(=O)c2cc(OC)c(OC)c(OC)c2)CCN1C(=O)c1cc(OC)c(OC)c(OC)c1 (stereo unspecified) [Octyl-carbamic acid 1,4-bis-(3,4,5-trimethoxy-benzoyl)-piperazin-2-ylmethyl ester]"
130 nM,–,"COc1cc(C(=O)N2CCN(C(=O)c3cc(OC)c(OC)c(OC)c3)C(COC(=O)NC(C)(C)C)C2)cc(OC)c1OC (stereo unspecified) [tert-Butyl-carbamic acid 1,4-bis-(3,4,5-trimethoxy-benzoyl)-piperazin-2-ylmethyl ester]"
